We go through 3 compounds from patent publication US7759331B2, “Pyridine-containing macroheterococylic compounds as kinase inhibitors” (Janssen Pharmaceutica NV, priority 2006, dated 2010).

“And” between values parts separate entries of the source, which are not always exact repeats. Identical values can stand only once.

Sequence of GSK3β(h) (P49841 whole entry): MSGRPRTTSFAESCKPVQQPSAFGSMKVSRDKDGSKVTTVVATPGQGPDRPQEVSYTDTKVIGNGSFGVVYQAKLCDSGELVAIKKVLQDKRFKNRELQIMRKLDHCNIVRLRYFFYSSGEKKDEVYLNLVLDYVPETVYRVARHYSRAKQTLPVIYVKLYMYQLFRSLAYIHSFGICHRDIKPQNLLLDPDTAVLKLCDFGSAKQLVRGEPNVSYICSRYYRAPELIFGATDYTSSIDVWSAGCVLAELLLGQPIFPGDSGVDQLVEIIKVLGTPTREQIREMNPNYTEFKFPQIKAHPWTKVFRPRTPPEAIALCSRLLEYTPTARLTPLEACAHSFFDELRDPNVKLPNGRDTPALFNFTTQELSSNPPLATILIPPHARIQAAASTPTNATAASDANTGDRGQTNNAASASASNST

The target in the assay is GSK3β(h) (Homo sapiens, UniProt P49841). The assay can be described thus: Glycogen Synthase Kinase-3 Assay. It counts as biochemical. The settings on record: assay run three times for each compound; each run's value listed. Here is the method:
Compounds were tested for the ability to inhibit GSK-3β protein. Briefly, in a final reaction volume of 25 μL, GSK-3β (h) (5-10 mU) was incubated with 8 mM MOPS pH 7.0, 0.2 mM EDTA, 20 μM […](p)EDEEE (phospho GS2 peptide), 10 mM Mg Acetate and [γ-^33P-ATP] (specific activity approx. 500 cpm/pmol, concentration as required). The reaction was initiated by the addition of the MgATP mix. After incubation for 40 minutes at room temperature, the reaction was stopped by the addition of 5 μL of a 3% phosphoric acid solution. 10 μL of the reaction was then spotted onto a P30 filtermat and washed three times for 5 minutes in 50 mM phosphoric acid and once in methanol prior to drying and scintillation counting.
The GSK-3β assay was run three times for each compound.
For the compound `CN(C)c1nc2ccc1CCCn1cc(c3ccccc31)C1=C(C(=O)NC1=O)c1cn(c3ccccc13)CCC2` [Cpd 3, 31-(dimethylamino)-5,15,25,30-tetraazaheptacyclo[27.2.2.1^5,12.1^18,25.0^6,11.0^13,17.0^19,24]pentatriaconta-1(31),6,8,10,12(35),13(17),18(34),19,21,23,29,32-dodecaene-14,16-dione], the IC50 was 0.0055 µM and 0.0529 µM and 0.0521 µM.
As to `Cc1ccc(-c2cc3cc(n2)CCCn2cc(c4ccccc42)C2=C(C(=O)NC2=O)c2cn(c4ccccc24)CCC3)cc1` [Cpd 4, 20-(4-methylphenyl)-4,14,19,26-tetraazaheptacyclo[24.6.1.1^7,14.1^18,22.0^2,6.0^8,13.0^27,32]pentatriaconta-1(33),2(6),7(35),8,10,12,18(34),19,21,27,29,31-dodecaene-3,5-dione], the IC50 is 0.01 µM and 0.021 µM and 0.0535 µM.
For the compound `O=C1NC(=O)C2=C1c1cn(c3ccccc13)CCCCc1ccc(c(N3CCCC3)n1)CCCCn1cc2c2ccccc21` [Cpd 5, 33-pyrrolidin-1-yl-6,16,26,32-tetraazaheptacyclo[29.2.2.1^6,13.1^19,26.0^7,12.0^14,18.0^20,25]heptatriaconta-1(33),7,9,11,13(37),14(18),19(36),20,22,24,31,34-dodecaene-15,17-dione], the IC50 is 0.024 µM and 0.0193 µM and 0.0298 µM.
